Assays:
Assay in all cases: Specificity to transferring acceptor
Type in all cases: biochemical
Design in all cases: key: −: no saccharide transferred product was formed; ±: a saccharide-transferred product formed in an amount of less than one percent to the total sugars; +: a saccharide-transferred product was formed in an amount of over one percent but below 10% to the total sugars; ++: a saccharide-transferred product was formed in an amount of over 10% to the total sugars
[1] = test system: α-isomaltosyl-transferring enzyme from Arthrobacter globiformis A19; settings: partially purified enzyme, panose as saccharide donor, 10 units/g substrate, 3.2% (w/v), 30° C., pH 6.0, 24 hours
Method: (§1) Saccharides were tested as follows to examine whether they can be used as transferring acceptors for the α-isomaltosyl-transferring enzyme of the present invention. A solution of D-glucose, D-xylose, L-xylose, D-galactose, D-fructose, D-mannose, D-arabinose, D-fucose, L-sorbose, L-rhamnose, methyl-α-glucoside (or methyl-α-glucopyranoside), methyl-β-glucoside (or methyl-β-glucopyranoside), N-acetyl-D-glucosamine, D-ribose, L-ribose, D-psicose, sorbitol, xylitol, mannitol, arabitol, ribitol, erythritol, maltose, maltotriose, maltotetraose, maltopentaose, isomaltose, isomaltotriose, α,α-trehalose, α,β-trehalose, kojibiose, nigerose, cellobiose, gentibiose, isopanose, maltitol, maltotriitol, lactose, sucrose, erlose, isomaltosylglucoside, α-cyclodextrin, β-cyclodextrin, γ-cyclodextrin, or L-ascorbic acid was prepared. To each solution was added panose as a saccharide donor to give an equal concentration, admixed with 10 units/g substrate of a purified specimen of either α-isomaltosyl-transferring enzyme from Bacillus globisporus C9 obtained by the method in Experiment 4, Bacillus globisporus C11 obtained by the method in Experiment 7, Bacillus globisporus N75 obtained by the method in Experiment 11, or Arthrobacter ramosus S1 obtained by the method in Experiment 15, or a partially purified specimen of α-isomaltosyl-transferring enzyme from Arthrobacter globiformis A19 obtained by the method in Experiment 18, followed by adjusting the saccharide concentration to 3.2% (w/v). The mixtures thus obtained were enzymatically reacted at 30° C. and Ph 6.0 for 24 hours. The saccharide composition of the resulting reaction mixtures were analyzed on gas chromatography (abbreviated as “GLC” hereinafter) for monosaccharides and disaccharides as testing saccharides, and on HPLC for tri- or higher-saccharides as testing saccharides to confirm whether these saccharides can be used as transferring acceptors for the above enzymes with an index of the positive or negative formation of a saccharide transferred product. In performing GLC, the following apparatuses and conditions were used: GLC apparatus, “GC-16A” commercialized by Shimadzu Corporation, Tokyo, Japan; column, a stainless-steel column, 3 mm in diameter and 2 m in length, packed with 2% “SILICONE OV-17/[…]”, commercialized by GL Sciences Inc., Tokyo, Japan; carrier gas, nitrogen gas at a flow rate of 40 ml/min under temperature conditions of increasing from 160° C. to 320° C. at an increasing temperature rate of 7.5° C./min; and detection, a hydrogen flame ionization detector. In the case of HPLC analysis, the apparatuses and conditions used were: HPLC apparatus, “CCPD” commercialized by Tosoh Corporation, Tokyo, Japan; column, “ODS-AQ-303” commercialized by YMC Co., Ltd., Tokyo, Japan; eluent, water at a flow rate of 0.5 ml/min; and detection, a differential refractometer.

[2] = test system: α-isomaltosyl-transferring enzyme from Arthrobacter ramosus S1; settings: panose as saccharide donor, 10 units/g substrate, 3.2% (w/v), 30° C., pH 6.0, 24 hours
Method: as §1

[3] = test system: α-isomaltosyl-transferring enzyme from Bacillus globisporus C11; settings: panose as saccharide donor, 10 units/g substrate, 3.2% (w/v), 30° C., pH 6.0, 24 hours
Method: as §1

[4] = test system: α-isomaltosyl-transferring enzyme from Bacillus globisporus C9; settings: panose as saccharide donor, 10 units/g substrate, 3.2% (w/v), 30° C., pH 6.0, 24 hours
Method: as §1

[5] = test system: α-isomaltosyl-transferring enzyme from Bacillus globisporus N75; settings: panose as saccharide donor, 10 units/g substrate, 3.2% (w/v), 30° C., pH 6.0, 24 hours
Method: as §1

Row | Structure (SMILES) | Product of transferring reaction, Enzyme of Stain A19 [1] | Product of transferring reaction, Enzyme of Strain S1 [2] | Product of transferring reaction, Enzyme of Strain C11 [3] | Product of transferring reaction, Enzyme of Strain C9 [4] | Product of transferring reaction, Enzyme of Strain N75 [5]
1 | OC[C@@H](O)[C@@H](O)CO [Erythritol, erythritol] | ± (a saccharide-transferred product formed in an amount of less than one percent to the total sugars) | + (a saccharide-transferred product was formed in an amount of over one percent but below 10% to the total sugars) | + (a saccharide-transferred product was formed in an amount of over one percent but below 10% to the total sugars) | + (a saccharide-transferred product was formed in an amount of over one percent but below 10% to the total sugars) | + (a saccharide-transferred product was formed in an amount of over one percent but below 10% to the total sugars)
2 | O=C1O[C@H]([C@@H](O)CO)C(O)=C1O [L-Ascorbic acid, L-ascorbic acid] | + (a saccharide-transferred product was formed in an amount of over one percent but below 10% to the total sugars) | ++ (a saccharide-transferred product was formed in an amount of over 10% to the total sugars) | ++ (a saccharide-transferred product was formed in an amount of over 10% to the total sugars) | ++ (a saccharide-transferred product was formed in an amount of over 10% to the total sugars) | ++ (a saccharide-transferred product was formed in an amount of over 10% to the total sugars)
3 | C[C@H](O)[C@H](O)[C@@H](O)[C@@H](O)C=O [L-Rhamnose, L-rhamnose] | ± (a saccharide-transferred product formed in an amount of less than one percent to the total sugars) | + (a saccharide-transferred product was formed in an amount of over one percent but below 10% to the total sugars) | ± (a saccharide-transferred product formed in an amount of less than one percent to the total sugars) | ± (a saccharide-transferred product formed in an amount of less than one percent to the total sugars) | ± (a saccharide-transferred product formed in an amount of less than one percent to the total sugars)
4 | O=C[C@@H](O)[C@@H](O)[C@@H](O)CO [L-Ribose, L-ribose] | ± (a saccharide-transferred product formed in an amount of less than one percent to the total sugars) | ++ (a saccharide-transferred product was formed in an amount of over 10% to the total sugars) | − | − | −
5 | O=C(CO)[C@@H](O)[C@H](O)[C@@H](O)CO [L-Sorbose, L-sorbose] | + (a saccharide-transferred product was formed in an amount of over one percent but below 10% to the total sugars) | + (a saccharide-transferred product was formed in an amount of over one percent but below 10% to the total sugars) | + (a saccharide-transferred product was formed in an amount of over one percent but below 10% to the total sugars) | + (a saccharide-transferred product was formed in an amount of over one percent but below 10% to the total sugars) | + (a saccharide-transferred product was formed in an amount of over one percent but below 10% to the total sugars)
6 | O=C[C@@H](O)[C@H](O)[C@@H](O)CO [L-Xylose, L-xylose] | ++ (a saccharide-transferred product was formed in an amount of over 10% to the total sugars) | ++ (a saccharide-transferred product was formed in an amount of over 10% to the total sugars) | ++ (a saccharide-transferred product was formed in an amount of over 10% to the total sugars) | ++ (a saccharide-transferred product was formed in an amount of over 10% to the total sugars) | ++ (a saccharide-transferred product was formed in an amount of over 10% to the total sugars)
7 | OC[C@@H](O)[C@@H](O)[C@H](O)[C@H](O)CO [Mannitol, mannitol] | − | − | − | − | −
8 | CO[C@H]1O[C@H](CO)[C@@H](O)[C@H](O)[C@H]1O [Methyl-α-glucoside, methyl-α-glucoside] | ++ (a saccharide-transferred product was formed in an amount of over 10% to the total sugars) | ++ (a saccharide-transferred product was formed in an amount of over 10% to the total sugars) | ++ (a saccharide-transferred product was formed in an amount of over 10% to the total sugars) | ++ (a saccharide-transferred product was formed in an amount of over 10% to the total sugars) | ++ (a saccharide-transferred product was formed in an amount of over 10% to the total sugars)
9 | CO[C@@H]1O[C@H](CO)[C@@H](O)[C@H](O)[C@H]1O [Methyl-β-glucoside, methyl-β-glucoside] | + (a saccharide-transferred product was formed in an amount of over one percent but below 10% to the total sugars) | + (a saccharide-transferred product was formed in an amount of over one percent but below 10% to the total sugars) | ++ (a saccharide-transferred product was formed in an amount of over 10% to the total sugars) | ++ (a saccharide-transferred product was formed in an amount of over 10% to the total sugars) | ++ (a saccharide-transferred product was formed in an amount of over 10% to the total sugars)
10 | CC(=O)N[C@H]1C(O)O[C@H](CO)[C@@H](O)[C@@H]1O (stereo partly drawn) [N-Acetyl-glucosamine, N-acetyl-D-glucosamine] | − | − | − | − | −
11 | OC[C@@H](O)[C@@H](O)[C@@H](O)CO [Ribitol, ribitol] | − | ± (a saccharide-transferred product formed in an amount of less than one percent to the total sugars) | − | − | −
